Marks after values point to notes of the source that are not given here.
Tests used:
[1] = Electron donating ability (DPPH radical scavenging, Blois' method)
Method: DPPH radical scavenging effect was measuring according to the Blois' method (1958). […] After adding 1 mL of the test sample in a test tube, 4×10^−4 M DPPH (4 mL) was added. The resulting mixture was shaken vigorously, allowed to stand in warm water of 60° C. for 10 seconds, and absorbance was measured at 525 nm. BHT was used as the positive control group. Then, free radical scavenging activity of each solution was calculated as “% inhibition” according to the following equation: % inhibition=[1−(Asample/Ablank)]×100, wherein Ab1ank is the absorbance of the control group (excluding the test sample) and Asample is the absorbance of the test compound.

[2] = system: Melan-a cells; experiment: MTT assay, viability of Melan-a cells; type: cell-based, mouse
Method: (§1) Melan-a cells were purchased from Dr. Dorothy Bennett (St. George's Hospital, UK). Immortalized Melan-a cells with high pigment content are derived from C57BL/6 mouse. The cells were cultured using Roswell Park Memorial Institute (RPMI)-1640 medium containing 10% fetal bovine serum (FBS), 1% penicillin/streptomycin (P/S) and 200 nM 12-O-tetradecanoylphorbol 13-acetate (TPA) in a 10% CO2 incubator at 37° C. for 72 hours.
Melan-a cells were seeded on a 96-well plate (0.5×10^4 cells/well) and cultured in a 10% CO2 incubator at 37° C. for 24 hours. After adding 200 μL of AT, KA, EGCG, GT, WT or BT diluted to various concentrations (3.125, 6.25, 12.5, 25 and 50 μg/mL) using RPMI-1640 medium to the wells, the cells were cultured in a 10% CO2 incubator at 37° C. for 48 hours. Then, the cells were cultured in a medium containing […] in a 10% CO2 incubator at 37° C. for 3 hours. Subsequently, after settling the cells by centrifuging the plate at 1,000 rpm for 10 minutes, the medium was removed. Then, 200 μL of DMSO was added and the cells were suspended for 15 minutes in a plate shaker. Absorbance was measured at 540 nm using an ELISA reader. Cell viability (%) was calculated according to the following equation: % cell viability=(Asample/Ablank)×100, wherein Ablank is the absorbance of the control group (excluding the test sample) and Asample is the absorbance of the test compound.

[3] = system: Melan-a cells; experiment: Melanin analysis in Melan-a cells; type: cell-based, mouse; conditions: 12.5 μg/mL, compared with the control group
Method: as §1
Melan-a cells were seeded on a 96-well plate (2×10^4 cells/well) and cultured in a 10% CO2 incubator at 37° C. for 24 hours. Then, after adding 200 μL of AT, KA, EGCG, GT, WT or BT diluted to various concentrations (1.563, 3.125, 6.25 and 12.5 μg/mL) using RPMI-1640 medium to the wells, the cells were cultured in a 10% CO2 incubator at 37° C. for 72 hours, and then washed. This procedure was repeated several times. After dissolving Melanin with 1N NaOH, absorbance was measured at 490 nm using an ELISA reader. Melanin content (%) was calculated according to the following equation: % melanin content=(Asample/Ablank)×100, wherein Ablank is the absorbance of the control group (excluding the test sample) and Asample is the absorbance of the test compound.

[4] = molecular target: T1, tyrosinase (Mus musculus, UniProt P11344); experiment: Intracellular tyrosinase activity of Melan-a cells; type: biochemical; conditions: 12.5 μg/mL, compared with the control group
T1 construct: endogenous in cells; host or cells: Melan-a cells
T1 sequence (P11344 19-533): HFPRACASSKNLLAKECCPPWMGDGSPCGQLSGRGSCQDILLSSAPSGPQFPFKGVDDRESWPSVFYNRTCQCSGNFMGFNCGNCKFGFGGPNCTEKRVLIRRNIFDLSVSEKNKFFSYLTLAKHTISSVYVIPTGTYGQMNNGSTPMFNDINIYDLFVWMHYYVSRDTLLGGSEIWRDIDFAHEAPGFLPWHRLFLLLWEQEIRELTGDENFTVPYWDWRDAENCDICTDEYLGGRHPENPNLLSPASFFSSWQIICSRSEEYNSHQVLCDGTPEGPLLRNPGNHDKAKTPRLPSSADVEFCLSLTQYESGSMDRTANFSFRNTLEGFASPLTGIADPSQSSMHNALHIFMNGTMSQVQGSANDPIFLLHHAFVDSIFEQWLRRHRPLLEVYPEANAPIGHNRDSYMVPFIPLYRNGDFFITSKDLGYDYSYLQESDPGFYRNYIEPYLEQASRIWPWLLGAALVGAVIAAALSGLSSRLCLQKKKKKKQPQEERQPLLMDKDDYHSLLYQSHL
Method: (§2) Melan-a cells were seeded on a 60 φ cell culture dish (4×10^5 cells/well) and cultured in a 10% CO2 incubator at 37° C. for 24 hours. After washing with PBS, the cells were suspended by adding 200 μL of 1% triton X-100 to the culture dish, transferred to an e-tube, and fixed on ice. 60 minutes later, after shaking for 2-3 seconds, the cells were centrifuged at 4° C. and 14,000 rpm for 20 minutes to obtain 50 μL of protein, which was mixed with 49 μL of 0.1 M phosphate buffer (pH 6.8) and 1 μL of AT, EGCG, GT, WT or BT (1.563, 3.125, 6.25 or 12.5 μg/mL). After allowing the mixture to stand for 1 hour and adding 100 μL of L-DOPA, the mixture was incubated in a 10% CO2 incubator at 37° C. for 1 hour. Absorbance was measured at 490 nm using an ELISA reader. Tyrosinase activity was calculated according to the following equation: % inhibition=[1−(Asample/Ablank)]×100, wherein Ablank is the absorbance of the control group (excluding the test sample) and Asampie is the absorbance of the test compound.

[5] = molecular target: T1, tyrosinase; experiment: Cell-extracted tyrosinase activity of Melan-a cells; type: biochemical; conditions: 12.5 μg/mL, compared with the control group
Method: as §2, with “72” for “24”, “Asample” for “Asampie”

[6] = system: UVB-induced hyperpigmentation; experiment: Melanin index (mexameter), brown guinea pig; type: in vivo; conditions: 2% sample topical
Method: Three brown guinea pigs weighing 450-550 g were purchased from Oriental Yeast Co. Ltd. (OYC; Japan). The animals were accustomed to the test environment for 7 days. The animals were housed in individual cages under the environment of 22±1° C. and 50±5% relative humidity with 12-hour alternate dark/light cycles. Feed and water were given ad libitum.
UVB-induced hyperpigmentation was elicited on the back of the brown guinea pig according to the method of Choi et al. (2004). After anesthetizing the guinea pig with ketamine hydrochloride (100 mg/kg BW), 24 separate areas (φ 12 mm) on the skin of the back was exposed to UVB radiation (302-nm sunlamp). The areas were exposed to UVB of 500 mJ/cm^2 for 3 consecutive weeks, once a week. That is, a total of 1,500 mJ/cm^2 of UVB was radiated.
On day 10 after the final UVB radiation, 30 μL (1.06 mg/cm^2/day) of 2% HQ, EGCG, GT, WT or BT was topically applied for 4 weeks to the hyperpigmented areas (9 areas per each) using a micropipette, twice a day, and 4 days a week. Saline was used as control, and propylene glycol:ethanol:water (5:3:2) was used as vehicle control.
Before and after the topical application of the test sample, change in melanin pigmentation was measured 3 times in a non-invasive manner using a mexameter, once a week. The degree of pigmentation was analyzed by averaging the measured values.

[7] = system: melanin pigmentation in the epithelium; experiment: Fontana-Masson's silver staining, melanin-pigmented area; type: in vivo, brown guinea pig; conditions: week 4; 2% sample
Method: In order to observe the morphological change of the skin tissue using an optical microscope, the extracted skin tissue was fixed in a 10% neutral formalin solution for 12 hours and washed with flowing water. After dehydrating in 70, 80, 95 and 100% ethanol followed by washing with xylene, the tissue was embedded in paraffin and 4 μm-thick samples were prepared using a microtome.
Paraffin was removed from the sample using xylene. After staining the sample for 60 minutes in silver nitrate solution at 56° C. according to the Masson's method (1928), followed by washing, color-toning 0.2% gold chloride solution and washing again, the sample was kept in 5% sodium thiosulfate solution for 5 minutes. Subsequently, after washing the sample once again, followed by counterstaining in nuclear fast red solution, dehydration in 95%, 95%, 100% and 100% alcohol and washing with xylene, the sample was put in Canada balsam for microscopic observation. The percentage of the melanin-pigmented area was calculated using an image analysis software.

[8] = system: S-100 protein; experiment: Immunohistochemical S-100 staining; type: in vivo, brown guinea pig; conditions: week 4; 2% sample
Method: (§3) After dehydration, followed by washing with xylene and embedding in paraffin, 4 μm-thick samples were prepared. The sample was adhered on a coating slide and stained using the BenchMark XT automated immunostainer (Ventana Medical Systems, USA) after removing paraffin. […] Following reaction with S-100 and HMB-45 primary antibodies diluted to 1:100, the sample was washed with reaction buffer, reacted with biotin for 20 minutes, and then reacted with streptavidin for 25 minutes. After coloring with diaminobenzidine (DAB) using the Ventana detection kit), the sample was stained for observation using an optical microscope.

[9] = system: gp100 protein; experiment: Immunohistochemical HMB-45 staining (gp100); type: in vivo, brown guinea pig; conditions: week 4; 2% sample
Method: as §3

[10] = system: tyrosinase; experiment: Western blotting, expression of tyrosinase protein in Melan-a cells; type: cell-based, mouse
Method: Protein concentration in the cell lysate was measured using the Pierce protein assay kit (Pierce Biotechnology, Inc., Rockford, USA), using BSA as standard. After adding same quantity of protein ([…]) on each lane, the proteins were separated by electrophoresis on 10% polyacrylamide gel. After transblotting onto nitrocellulose membrane, the membrane was incubated with PEP7 (1:10000 dilution, anti-tyrosinase antibody), PEP1 (1:10000 dilution, anti-TRP1 antibody) and PEP8 (1:10000 dilution, anti-TRP2 antibody). Then, the membrane was incubated with horseradish peroxidase-conjugated anti-rabbit IgG (1:1000 dilution; Amersham, Bucks, UK). Immunoreactive bands were detected by chemiluminescence using the ECL western blotting detector (Amersham, Bucks, UK). Band intensity was measured using the ImageJ program (NIH, Bethesda, USA). β-actin was used as internal control group for the immunoblotting.

Compound: O=C(O[C@@H]1Cc2c(O)cc(O)cc2O[C@@H]1c1cc(O)c(O)c(O)c1)c1cc(O)c(O)c(O)c1 [EGCG, epigallocatechin gallate]
- Electron donating ability ([1]; 800 μg/mL): 94%
- maximum permissible level (MPL) ([2]; Melan-a cells): 12.5 µg/mL
- melanin content decreased by [3]: 29%
- intracellular tyrosinase activity decreased by [4]: 61%
- tyrosinase activity in cell extract (decreased) by [5]: 18%
- melanin index ([6]; week 0): 723.5 ± 11.3^a AU
- melanin index ([6]; week 1): 704.1 ± 12.5^a* AU
- melanin index ([6]; week 2): 675.9 ± 12.4^c AU
- melanin index ([6]; week 3): 636.6 ± 12.2^b AU
- melanin index ([6]; week 4): 582.9 ± 12.8^b AU
- melanin index decreased by, as compared to the group C ([6]; week 4): 17%
- % of melanin pigment [7]: 10.5 ± 2.0^c %
- Melanin pigment area [7]: 1174 ± 189 μm^2
- melanin pigmented area decreased by, as compared to the control group [7]: 48%
- % of S-100 Protein [8]: 5.3 ± 0.7^bc %
- S-100 Protein area [8]: 611 ± 81 μm^2
- area of S-100 protein expression, decrease by, as compared to the control groups [8]: 62%
- % of Melanin pigment (Table 5, gp 100 protein) [9]: 5.3 ± 0.8^c %
- Melanin pigment (area; Table 5, gp 100 protein) [9]: 600 ± 107 μm^2
- area of gp 100 protein expression, decrease by, as compared to the group C [9]: 61%

Compound: O=c1cc(CO)occ1O [KA, kojic acid]
- Electron donating ability ([1]; 800 μg/mL): 19%
- maximum permissible level (MPL) ([2]; mouse, 48 h): exceeds 50 μg/mL
- melanin content decreased by [3]: 7%

Compound: OC[C@H]1O[C@@H](Oc2ccc(O)cc2)[C@H](O)[C@@H](O)[C@@H]1O [AT, arbutin]
- Electron donating ability ([1]; 800 μg/mL): 44%
- maximum permissible level (MPL) ([2]; mouse, 48 h): exceeds 50 μg/mL
- melanin content decreased by [3]: 18%
- intracellular tyrosinase activity decreased by [4]: 12%
- tyrosinase activity in cell extract (decreased) by [5]: 13%
- expression of tyrosinase protein [10]: no significant decrease

Compound: Cc1cc(C(C)(C)C)c(O)c(C(C)(C)C)c1 [BHT, 2,6-di-tert-butyl-4-methylphenol]
- Electron donating ability ([1]; 800 μg/mL): 89%
- Electron donating ability ([1]; 1,000 μg/mL): 55%
